Here are results for three compounds from ChEMBL document CHEMBL5113508, “Targeting Human CD22/Siglec-2 with Dimeric Sialosides as Novel Oligosaccharide Mimetics” (J Med Chem, 2022).

Experiment [1] concerns the target T1, B-cell receptor CD22 (Homo sapiens, UniProt P20273).
T1 sequence (P20273 whole entry): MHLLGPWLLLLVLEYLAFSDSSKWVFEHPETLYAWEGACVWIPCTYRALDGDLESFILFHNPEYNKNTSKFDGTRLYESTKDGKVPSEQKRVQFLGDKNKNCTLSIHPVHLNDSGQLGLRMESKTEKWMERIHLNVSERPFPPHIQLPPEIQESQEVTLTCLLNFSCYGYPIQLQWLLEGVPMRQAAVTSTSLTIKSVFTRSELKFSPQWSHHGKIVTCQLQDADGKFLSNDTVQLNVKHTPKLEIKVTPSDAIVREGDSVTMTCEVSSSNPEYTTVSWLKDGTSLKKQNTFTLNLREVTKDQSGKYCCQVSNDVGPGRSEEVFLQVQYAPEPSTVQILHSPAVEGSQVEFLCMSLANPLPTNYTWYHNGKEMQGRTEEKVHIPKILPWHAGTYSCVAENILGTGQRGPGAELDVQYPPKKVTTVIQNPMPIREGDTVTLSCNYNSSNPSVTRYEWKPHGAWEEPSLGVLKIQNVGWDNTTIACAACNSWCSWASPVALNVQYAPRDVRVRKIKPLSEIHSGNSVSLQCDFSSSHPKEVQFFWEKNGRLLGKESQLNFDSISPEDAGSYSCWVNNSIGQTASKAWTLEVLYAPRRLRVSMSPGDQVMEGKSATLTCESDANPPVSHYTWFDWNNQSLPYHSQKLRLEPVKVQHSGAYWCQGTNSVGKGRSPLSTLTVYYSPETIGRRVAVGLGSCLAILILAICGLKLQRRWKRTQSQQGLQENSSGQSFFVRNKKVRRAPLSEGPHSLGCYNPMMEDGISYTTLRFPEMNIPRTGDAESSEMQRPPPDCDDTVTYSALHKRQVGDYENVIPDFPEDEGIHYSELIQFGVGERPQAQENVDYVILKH
The experiment can be described thus: Inhibition of CD22 in human Daudi cells preincubated for 15 mins followed by biotinylated dimeric 2-(78-biotinoylamino-1,4,7,10,13,16-hexaoxa-octadecyl)-1,4-bis(2-aza-l-oxo-8-(sodium(5-acetamido-3,5,9-trideoxy-9-(4-phenylbenzamido)-D-glycero-a-D-galacto-non-2-ulopyranosyloxyonate))-5-thia-octyl) benzene probe addition incubated for 20 mins by flow cytometric analysis. The class given is cell-based.

Experiment [2] deals with B-cell receptor CD22 (Homo sapiens) (UniProt P20273). Kind of experiment: Inhibition of to hFc tagged CD22 (unknown origin) assessed as relative inhibitory potency incubated for 4 hrs by ELISA relative to 1,4-bis-(2-Aza-1-oxo-8-(sodium(5-acetamido-3,5,9-trideoxy-9-(4-phenylbenzamido)-D-glycero-alpha-D-galacto-non-2-ulopyranosyloxyonate))-5-thia-octyl)benzene. For orientation: An ELISA detects its analyte on a solid surface through an enzyme-linked reagent.

Experiment [3] has the same target. Kind of experiment: Inhibition of CD22 in human Daudi cells assessed as relative inhibitory potency in presence of biotinylated dimeric 2-(78-biotinoylamino-1,4,7,10,13,16-hexaoxa-octadecyl)-1,4-bis(2-aza-l-oxo-8-(sodium(5-acetamido-3,5,9-trideoxy-9-(4-phenylbenzamido)-D-glycero-a-D-galacto-non-2-ulopyranosyloxyonate))-5-thia-octyl) benzene preincubated for 15 mins followed by probe addition incubated for 20 mins by flow cytometric analysis relative to 1,4-bis-(2-Aza-1-oxo-8-(sodium(5-acetamido-3,5,9-trideoxy-9-(4-phenylbenzamido)-D-glycero-alpha-D-galacto-non-2-ulopyranosyloxyonate))-5-thia-octyl)benzene. The class given is cell-based. The conditions noted are these: time 35.0 min.

For experiment [4] the target is unchanged. Kind of experiment: Antagonist activity at CD22 in IgM stimulated human Daudi cells assessed as increase in calcium flux incubated for 10 mins by flow cytometric analysis. The conditions noted are these: dose 2-200 µM, DDE = dose-dependent effect. The class given is cell-based. (In general: Calcium flux is commonly read through the fluorescence of an indicator in the cells.)

Experiment [5] has the same target. Kind of experiment: Inhibition of hFc tagged CD22 (unknown origin) assessed as relative inhibitory potency incubated for 4 hrs by ELISA relative to 1,4-Bis-(2-aza-1-oxo-8-(sodium-(5-acetamido-3,5-dideoxy-D-glycero-alpha-D-galacto-non-2-ulopyranosyloxyonate))-5-thia-octyl)benzene.
For experiment [6] the target is unchanged. Kind of experiment: Inhibition of CD22 (unknown origin) in human Daudi cells assessed as relative inhibitory potency in presence of biotinylated dimeric 2-(78-biotinoylamino-1,4,7,10,13,16-hexaoxa-octadecyl)-1,4-bis(2-aza-l-oxo-8-(sodium(5-acetamido-3,5,9-trideoxy-9-(4-phenylbenzamido)-D-glycero-a-D-galacto-non-2-ulopyranosyloxyonate))-5-thia-octyl) benzene preincubated for 15 mins followed by probe addition incubated for 20 mins by flow cytometric analysis relative to 1,4-Bis-(2-aza-1-oxo-8-(sodium-(5-acetamido-3,5-dideoxy-D-glycero-alpha-D-galacto-non-2-ulopyranosyloxyonate))-5-thia-octyl)benzene. The class given is cell-based. The following applies: time 35.0 min. In general terms: In flow cytometry, cells or beads pass a laser one at a time.

The target of experiment [7] is T1, B-cell receptor CD22. Kind of experiment: Inhibition hFc tagged CD22 incubated for 4 hrs by ELISA.

The IC50 is the concentration needed to halve the response being measured. The low end stands for inhibition by little substance, the high end for a need for much substance. Compound `CC(=O)N[C@H]1[C@H]([C@H](O)[C@H](O)CNC(=O)c2ccc(-c3ccccc3)cc2)O[C@@](OCCCSCCNC(=O)CCCCC(=O)NCCSCCCO[C@]2(C(=O)O)C[C@H](O)[C@@H](NC(C)=O)[C@H]([C@H](O)[C@H](O)CNC(=O)c3ccc(-c4ccccc4)cc3)O2)(C(=O)O)C[C@@H]1O` showed an IC50 on B-cell receptor CD22 [1] of 24000 nM. Also, the fold change (FC) in experiment [2] came to 0.77; in experiment [3], 0.073.

`CC(=O)N[C@H]1[C@H]([C@H](O)[C@H](O)CO)O[C@@](OCCCSCCNC(=O)c2ccc(C(=O)NCCSCCCO[C@]3(C(=O)O)C[C@H](O)[C@@H](NC(C)=O)[C@H]([C@H](O)[C@H](O)CNC(=O)c4ccc(-c5ccccc5)cc4)O3)cc2)(C(=O)O)C[C@@H]1O`: the Activity entry in experiment [4] is “Dde”. Also, the fold change (FC) in experiment [5] was 105; in experiment [6] it was 135. Further, it took 0.39 nM to reach half-maximal inhibition against B-cell receptor CD22 [7] (IC50).

Consider `CC(=O)N[C@H]1[C@H]([C@H](O)[C@H](O)CNC(=O)c2ccc(-c3ccccc3)cc2)O[C@@](OCCCSCCNC(=O)c2ccc(C(=O)NCCSCCCO[C@]3(C(=O)O)C[C@H](O)[C@@H](NC(C)=O)[C@H]([C@H](O)[C@H](O)CNC(=O)c4ccc(-c5ccccc5)cc4)O3)cc2)(C(=O)O)C[C@@H]1O`, for which the results for the 50% inhibitory concentration (IC50) against B-cell receptor CD22 [1] and against B-cell receptor CD22 [7] were 2200 nM and 0.41 nM, respectively. The Activity entry in experiment [4] was “Dde”. The fold change (FC) in experiment [5] was 100; in experiment [6], 2940.
